Data as given in US5428175A (priority 1993, dated 1995).
In brackets after ≈: the same amount, converted by molar mass.

What was measured:
[1] = tested on: Human epidermoid carcinoma (oral) cell KB; assay: Cytocidal activity of HS-1 for KB cells (MTT); assay type: cell-based; settings: 72 hours, absorption at 540 nm, read-out: TC50 (the source's name)
Method: Human epidermoid carcinoma (oral) cell KB was inoculated into 96-well microplates (4000 cells/200 μl/well) and cultured in DMEM medium (containing 5% FCS) in 5% CO2 at 37° C. for 24 hours. 5 μl of HS-1 solutions in DMSO at various HS-1 concentrations were added to above culture. After the culture incubated for 72 hours, 10 μl of a 2.5 mg/ml MTT solution was added and incubator was continued for a further 4 hours, thus producing formazan. After the addition of 200 μl of DMSO, the absorption at 540 nm was measured using an imunoreader. The cytocidal activity of HS-1 for KB cells was determined from the ratio of the absorption of the compound to the absorption of the control.

[2] = tested on: Staphylococcus aureus IFO 12732; assay: Antimicrobial activity, paper disc inhibition zone; assay type: cell-based; settings: IFO12732, 40 μg/disc, 8 mm paper disc
Method: (§1) Antimicrobial activity of HS-1 was examined using eleven kinds of bacteria, fungi, and yeasts using paper discs with a diameter of 8 mm, at a concentration of 40 μg/disc. The results are shown in Table 3, wherein the antimicrobial activity of HS-1 is indicated as the diameter of the inhibition zone.

Bacillus subtilis rec - = assay: Antimicrobial activity, paper disc inhibition zone; assay type: cell-based; settings: 40 μg/disc, 8 mm paper disc; Bacillus subtilis rec - (repair activity defective strain)
Method: as §1

[3] = tested on: Xanthomonas citri IFO 3781; assay: Antimicrobial activity, paper disc inhibition zone; assay type: cell-based; settings: IFO3781, 40 μg/disc, 8 mm paper disc
Method: as §1

Escherichia coli BE 1196 = assay: Antimicrobial activity, paper disc inhibition zone; assay type: cell-based; settings: BE1196, 40 μg/disc, 8 mm paper disc
Method: as §1

[4] = tested on: Botrytis cinerea IFO 5365; assay: Antimicrobial activity, paper disc inhibition zone; assay type: cell-based; settings: IFO5365, 40 μg/disc, 8 mm paper disc
Method: as §1

[5] = tested on: Schizosaccharomyces pombe IFO 0638; assay: Antimicrobial activity, paper disc inhibition zone; assay type: cell-based; settings: IFO0638, 40 μg/disc, 8 mm paper disc
Method: as §1

Bacillus subtilis rec + = assay: Antimicrobial activity, paper disc inhibition zone; assay type: cell-based; settings: 40 μg/disc, 8 mm paper disc; Bacillus subtilis rec + (wild strain)
Method: as §1

[6] = tested on: Mycobacterium phlei IFO 11158; assay: Antimicrobial activity, paper disc inhibition zone; assay type: cell-based; settings: Mycolicibacterium phlei, IFO11158, 40 μg/disc, 8 mm paper disc
Method: as §1

Escherichia coli AB 1157 = assay: Antimicrobial activity, paper disc inhibition zone; assay type: cell-based; settings: AB1157, 40 μg/disc, 8 mm paper disc
Method: as §1

[7] = tested on: Pseudomonas aeruginosa N-10 (L-form); assay: Antimicrobial activity, paper disc inhibition zone; assay type: cell-based; settings: 40 μg/disc, 8 mm paper disc
Method: as §1

Solubility = assay type: physicochemical
[8] = tested on: Xanthomonas oryzae IFO 331.2; assay: microbe, parasite or virus in culture; assay type: cell-based; settings: IFO331, read-out: Inhibition zone
[9] = known from the literature; cited from earlier work

Row | Structure (SMILES) | IC50 [1] [µg/mL] | zone of inhibition at 40 µg/disc [2] [mm] | zone of inhibition at 40 µg/disc (Bacillus subtilis rec -) [mm] | zone of inhibition at 40 µg/disc [3] [mm] | zone of inhibition at 40 µg/disc (Escherichia coli BE 1196) [mm] | zone of inhibition at 40 µg/disc [4] [mm] | zone of inhibition at 40 µg/disc [5] [mm] | zone of inhibition at 40 µg/disc (Bacillus subtilis rec +) [mm] | zone of inhibition at 40 µg/disc [6] [mm] | zone of inhibition at 40 µg/disc (Escherichia coli AB 1157) [mm] | zone of inhibition at 40 µg/disc [7] [mm] | Solubility (Solubility; in dimethyl sulfoxide) | Solubility (Solubility; in methanol) | Solubility (Solubility; in water) | zone of inhibition at 40 µg/disc [8] [mm] | antimicrobial and antiprotozoal activities [9]
1 | O=C1N=C(c2c[nH]c3ccccc23)C=C1c1c[nH]c2ccccc12 [HS-1] | 0.68 (≈ 2.18 µM) | 0 | < 10 | 0 | 0 | 0 | 0 | 0 | 0 | 0 | < 10 | Readily soluble | scarcely soluble | insoluble | 11.9 | 
2 | O=C1NC(c2c[nH]c3ccc(O)cc23)=C/C1=C1\C(=O)Nc2ccccc21 [violacein] |  |  |  |  |  |  |  |  |  |  |  |  |  |  |  | known to exhibit antimicrobial and antiprotozoal activities
